The values that follow come from US11267825B2 (AICURIS GMBH & CO. KG, priority 2017, dated 2022).

Where only a bound is given, the exact number is not on record here.

For one test, the system named is HBV. Description: Determination of HBV DNA from the supernatants of HepAD38 cells (anti-HBV activity). Particulars: Hepatitis B virus, 144 h; HBV DNA in HepAD38 supernatant at day 6; read-out: Cell Activity (EC50). Format: cell-based, hepatitis B virus. The method, boiled down:
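HepAD38 cells (60,000/well) were treated with half-log compound dilutions in tetracycline-free medium to induce HBV production. On day 6, HBV DNA was purified from filtered supernatant and quantified by real-time PCR against plasmid standards. EC50 values came from non-linear regression of relative copy numbers, typically from three experiments in triplicate.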

A further test addresses HBV core protein (UniProt P03146). Format: biochemical. Particulars: read-out: Assembly Activity (IC50); BODIPY-FL labelled core protein, assembly started with NaCl, read after 6 min. The method in brief:
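Fluorescence-quenching assembly assay using E. coli-expressed core protein 1–149 plus Cys150, labelled with BODIPY-FL maleimide, at 1.0–2.0 μM in 50 mM HEPES pH 7.5, 0.5% DMSO. Assembly started with NaCl to […]; fluorescence (ex 477/em 525 nm) read after 6 min. EC50 by non-linear regression, 8-point 0.5-log dilutions.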

Sequence of HBV core protein (P03146 whole entry, looked up): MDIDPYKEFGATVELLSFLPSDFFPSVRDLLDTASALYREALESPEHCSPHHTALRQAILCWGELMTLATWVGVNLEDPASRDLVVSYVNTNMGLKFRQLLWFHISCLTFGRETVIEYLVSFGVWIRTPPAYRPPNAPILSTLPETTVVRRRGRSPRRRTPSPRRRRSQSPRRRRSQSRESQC

Broadly, the EC50 is the concentration giving half of the maximal effect. In general, IC50 refers to the midpoint of a concentration-inhibition curve. With `CC(C)Nc1nc2c(s1)CN(C(=O)c1cc3ccccc3[nH]1)CC2` [Example 128, 5-(1H-indole-2-carbonyl)-N-(propan-2-yl)-4H,5H,6H,7H-[1,3]thiazolo[5,4-c]pyridin-2-amine], the EC50 in the test with HBV was less than 1 µM. Moreover, on HBV core protein, the IC50 is less than 5 µM.
Taken in the same sequence, the figures for `Nc1nc2c(s1)CN(C(=O)c1cc3c(CO)cccc3[nH]1)CC2` [Example 9, (2-{2-amino-4H,5H,6H,7H-[1,3]thiazolo[5,4-c]pyridine-5-carbonyl}-1H-indol-4-yl)methanol] were 1 to 10 µM and 5 to 10 µM.
Taken in the same sequence, the figures for `CCc1cccc2[nH]c(C(=O)N3CCc4nc(NC(=O)C5CCOCC5)sc4C3)cc12` [Example 334, N-[5-(4-ethyl-1H-indole-2-carbonyl)-4H,5H,6H,7H-[1,3]thiazolo[5,4-c]pyridin-2-yl]oxane-4-carboxamide] were less than 1 µM and less than 5 µM.
For `O=C(c1cc2ccccc2[nH]1)N1CCc2nc(NCC3CCNC3)sc2C1` (stereo not drawn) [Example 389, 5-(1H-indole-2-carbonyl)-N—[(pyrrolidin-3-yl)methyl]-4H,5H,6H,7H-[1,3]thiazolo[5,4-c]pyridin-2-amine], in that order: 1 to 10 µM and less than 5 µM.
`O=C(c1cc2c(F)c(F)c(F)cc2[nH]1)N1CCc2nc(NCC3CCOC3)sc2C1` (stereo not drawn) [Example 105, 5-(4,5,6-trifluoro-1H-indole-2-carbonyl)-N-[(oxolan-3-yl)methyl]-4H,5H,6H,7H-[1,3]thiazolo[5,4-c]pyridin-2-amine]: the EC50 in the test with HBV was less than 1 µM. In addition, at HBV core protein, the IC50 is less than 5 µM.
Taken in the same sequence, the figures for `O=C(c1cc2c(Cl)ccc(F)c2[nH]1)N1CCc2nc(NCC3CCOC3)sc2C1` (stereo not drawn) [Example 116, 5-(4-chloro-7-fluoro-1H-indole-2-carbonyl)-N-[(oxolan-3-yl)methyl]-4H,5H,6H,7H-[1,3]thiazolo[5,4-c]pyridin-2-amine] were less than 1 µM and 5 to 10 µM.
For `Nc1nc2c(s1)CN(C(=O)c1cc3c(Cl)ccc(Cl)c3[nH]1)CC2` [Example 177, 5-(4,7-dichloro-1H-indole-2-carbonyl)-4H,5H,6H,7H-[1,3]thiazolo[5,4-c]pyridin-2-amine], in that order: less than 100 µM and less than 100 µM.
For `Cc1cc(C)c2[nH]c(C(=O)N3CCc4nc(N)sc4C3)cc2c1` [Example 137, 5-(5,7-dimethyl-1H-indole-2-carbonyl)-4H,5H,6H,7H-[1,3]thiazolo[5,4-c]pyridin-2-amine], in that order: less than 100 µM and less than 100 µM.
`Nc1nc2c(s1)CN(C(=O)c1cc3cc(F)cc(F)c3[nH]1)CC2` [Example 160, 5-(5,7-difluoro-1H-indole-2-carbonyl)-4H,5H,6H,7H-[1,3]thiazolo[5,4-c]pyridin-2-amine]: the EC50 with HBV is less than 1 µM. Further, the IC50 on HBV core protein was less than 5 µM.
Taken in the same sequence, the figures for `O=C(c1cc2ccccc2[nH]1)N1CCc2nc(NC3COC3)sc2C1` [Example 127, 5-(1H-indole-2-carbonyl)-N-(oxetan-3-yl)-4H,5H,6H,7H-[1,3]thiazolo[5,4-c]pyridin-2-amine] were less than 1 µM and less than 5 µM.
With `Nc1nc2c(s1)CN(C(=O)c1cc3cc(Cl)ccc3[nH]1)CC2` [Example 155, 5-(5-chloro-1H-indole-2-carbonyl)-4H,5H,6H,7H-[1,3]thiazolo[5,4-c]pyridin-2-amine], in the test with HBV, the concentration giving a half-maximal response (EC50) was in the range of 1 to 10 µM. Moreover, the IC50 at HBV core protein is less than 5 µM.
Consider `CC1(C(=O)Nc2nc3c(s2)CN(C(=O)c2cc4ccccc4[nH]2)CC3)CC1` [Example 274, N-[5-(1H-indole-2-carbonyl)-4H,5H,6H,7H-[1,3]thiazolo[5,4-c]pyridin-2-yl]-1-methylcyclopropane-1-carboxamide], for which the EC50 with HBV is less than 1 µM. Also, the IC50 at HBV core protein is less than 5 µM.
For `O=C(Nc1nc2c(s1)CN(C(=O)c1cc3c(F)cc(F)cc3[nH]1)CC2)C1CCOCC1` [Example 319, N-[5-(4,6-difluoro-1H-indole-2-carbonyl)-4H,5H,6H,7H-[1,3]thiazolo[5,4-c]pyridin-2-yl]oxane-4-carboxamide], in that order: less than 1 µM and less than 5 µM.
Taken in the same sequence, the figures for `O=C(c1cc2ccccc2[nH]1)N1CCc2nc(N[C@H]3CCCC[C@@H]3O)sc2C1` [Example 47, (1S,2S)-2-{[5-(1H-indole-2-carbonyl)-4H,5H,6H,7H-[1,3]thiazolo[5,4-c]pyridin-2-yl]amino}cyclohexan-1-ol] were less than 1 µM and less than 5 µM.
As to `O=C(Nc1nc2c(s1)CN(C(=O)c1cc3ccccc3[nH]1)CC2)C1CCC(O)CC1` (stereo not drawn) [Example 411, 4-hydroxy-N-[5-(1H-indole-2-carbonyl)-4H,5H,6H,7H-[1,3]thiazolo[5,4-c]pyridin-2-yl]cyclohexane-1-carboxamide], the EC50 with HBV is less than 1 µM. Also, the IC50 on HBV core protein was less than 5 µM.
As for `O=C(c1cc2ccccc2[nH]1)N1CCc2nc(NCC(CO)CC3CCC3)sc2C1` (stereo not drawn) [Example 227, 2-(cyclobutylmethyl)-3-{[5-(1H-indole-2-carbonyl)-4H,5H,6H,7H-[1,3]thiazolo[5,4-c]pyridin-2-yl]amino}propan-1-ol], the EC50 with HBV was less than 1 µM. Besides, the IC50 at HBV core protein was less than 100 µM.
On to `COCC1(CNc2nc3c(s2)CN(C(=O)c2cc4ccccc4[nH]2)CC3)CC1` [Example 340, 5-(1H-indole-2-carbonyl)-N-{[1-(methoxymethyl)cyclopropyl]methyl}-4H,5H,6H,7H-[1,3]thiazolo[5,4-c]pyridin-2-amine], for which the concentration giving a half-maximal response (EC50) in the test with HBV was less than 1 µM. Further, the IC50 on HBV core protein is less than 5 µM.
For `O=C(c1cc2c(F)c(F)ccc2[nH]1)N1CCc2nc(NCC3CCOC3)sc2C1` (stereo not drawn) [Example 112, 5-(4,5-difluoro-1H-indole-2-carbonyl)-N-[(oxolan-3-yl)methyl]-4H,5H,6H,7H-[1,3]thiazolo[5,4-c]pyridin-2-amine], in that order: less than 1 µM and less than 5 µM.
Taken in the same sequence, the figures for `CC1(C)OCC(CNc2nc3c(s2)CN(C(=O)c2cc4ccccc4[nH]2)CC3)O1` (stereo not drawn) [Example 205, N-[(2,2-dimethyl-1,3-dioxolan-4-yl)methyl]-5-(1H-indole-2-carbonyl)-4H,5H,6H,7H-[1,3]thiazolo[5,4-c]pyridin-2-amine] were less than 1 µM and 5 to 10 µM.
Taken in the same sequence, the figures for `O=C(c1cc2ccccc2[nH]1)N1CCc2nc(NCC3(CO)CCOCC3)sc2C1` [Example 237, [4-({[5-(1H-indole-2-carbonyl)-4H,5H,6H,7H-[1,3]thiazolo[5,4-c]pyridin-2-yl]amino}methyl)oxan-4-yl]methanol] were less than 1 µM and less than 5 µM.
In the case of `CC(C)c1cccc2[nH]c(C(=O)N3CCc4nc(N)sc4C3)cc12` [Example 12, 5-[4-(propan-2-yl)-1H-indole-2-carbonyl]-4H,5H,6H,7H-[1,3]thiazolo[5,4-c]pyridin-2-amine], in the test on HBV, the concentration giving a half-maximal response (EC50) is less than 1 µM. Besides, the IC50 at HBV core protein was less than 5 µM.
For `O=C(c1cc2ccccc2[nH]1)N1CCc2nc(NC3CCOC3)sc2C1` (stereo not drawn) [Example 180, 5-(1H-indole-2-carbonyl)-N-(oxolan-3-yl)-4H,5H,6H,7H-[1,3]thiazolo[5,4-c]pyridin-2-amine], in that order: less than 1 µM and less than 5 µM.
Regarding `O=C(c1cc2c(C(F)(F)F)cccc2[nH]1)N1CCc2nc(NCC3CCOC3)sc2C1` (stereo not drawn) [Example 123, 5-(4-(trifluoromethyl)-1H-indole-2-carbonyl)-N-[(oxolan-3-yl)methyl]-4H,5H,6H,7H-[1,3]thiazolo[5,4-c]pyridin-2-amine], the EC50 with HBV is less than 1 µM. Moreover, at HBV core protein, the half-inhibitory concentration (IC50) lay in the range of 5 to 10 µM.
Taken in the same sequence, the figures for `Cc1nc2c(s1)CN(C(=O)c1cc3cc(Cl)ccc3[nH]1)CC2` [Example 161, 5-chloro-2-{2-methyl-4H,5H,6H,7H-[1,3]thiazolo[5,4-c]pyridine-5-carbonyl}-1H-indole] were 1 to 10 µM and 5 to 10 µM.
For `Cc1ccc(F)c2[nH]c(C(=O)N3CCc4nc(N)sc4C3)cc12` [Example 86, 5-(7-fluoro-4-methyl-1H-indole-2-carbonyl)-4H,5H,6H,7H-[1,3]thiazolo[5,4-c]pyridin-2-amine], in that order: less than 1 µM and less than 5 µM.
For `N#Cc1cc(F)cc2[nH]c(C(=O)N3CCc4nc(N)sc4C3)cc12` [Example 77, 2-{2-amino-4H,5H,6H,7H-[1,3]thiazolo[5,4-c]pyridine-5-carbonyl}-6-fluoro-1H-indole-4-carbonitrile], in that order: less than 1 µM and less than 5 µM.
As for `COC1CCC(Nc2nc3c(s2)CN(C(=O)c2cc4ccccc4[nH]2)CC3)CC1` (stereo not drawn) [Example 310, 5-(1H-indole-2-carbonyl)-N-(4-methoxycyclohexyl)-4H,5H,6H,7H-[1,3]thiazolo[5,4-c]pyridin-2-amine], in the test on HBV, the EC50 was less than 1 µM. Moreover, at HBV core protein, the IC50 is 5 to 10 µM.
Taken in the same sequence, the figures for `Nc1nc2c(s1)CN(C(=O)c1cc3cccc(O)c3[nH]1)CC2` [Example 98, 2-{2-amino-4H,5H,6H,7H-[1,3]thiazolo[5,4-c]pyridine-5-carbonyl}-1H-indol-7-ol] were less than 100 µM and less than 100 µM.
In the case of `Cc1nc2c(s1)CN(C(=O)c1cc3c(F)cc(Cl)cc3[nH]1)CC2` [Example 165], the EC50 in the test with HBV fell in the range of 1 to 10 µM. For the same compound, the IC50 on HBV core protein is less than 5 µM.
For `CNC(=O)C1(CNc2nc3c(s2)CN(C(=O)c2cc4ccccc4[nH]2)CC3)CCC1` [Example 428, 1-({[5-(1H-indole-2-carbonyl)-4H,5H,6H,7H-[1,3]thiazolo[5,4-c]pyridin-2-yl]amino}methyl)-N-methylcyclobutane-1-carboxamide], in that order: less than 1 µM and less than 5 µM.
